The test deals with T1, Recombinant human HSD17B13 enzyme (Homo sapiens, UniProt Q7Z5P4).
T1 sequence (Q7Z5P4 20-300): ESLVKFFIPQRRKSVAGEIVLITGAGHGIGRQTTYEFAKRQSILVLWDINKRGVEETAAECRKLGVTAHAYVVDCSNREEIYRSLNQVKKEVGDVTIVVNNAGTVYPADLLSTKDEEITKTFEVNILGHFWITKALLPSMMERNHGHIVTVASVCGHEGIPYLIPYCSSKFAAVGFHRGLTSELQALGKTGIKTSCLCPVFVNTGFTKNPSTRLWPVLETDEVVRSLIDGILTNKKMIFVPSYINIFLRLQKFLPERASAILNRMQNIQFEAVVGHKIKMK
The test is described as follows: HSD17b13 NAD(P)H-Glo biochemical assay. The note with it: for pIC50: 50 uM estradiol, 1 mM NAD+, NAD(P)H-Glo luminescence, read-out: HSD17β13 IC50; for inhibition at 10 µM: at 10 uM compound, read-out: HSD17β13 % at 10 uM. Summed up:
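Recombinant human HSD17B13 in 20 mM Tris pH7.4 with 0.002% Tween-20 and 0.02% BSA was preincubated with inhibitor for 20 minutes at RT. The reaction ran 3 hours at 37° C with 50 uM estradiol and 1 mM NAD+ (final). NADH formed was detected by NAD(P)H-Glo luminescence after 1 hour at RT.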

pIC50: −log10 of the molar value.

In general, pIC50 refers to the IC50 on a negative log10 scale, so that one unit is a factor of ten.

With `Oc1c(F)cc2nnn(-c3ccc(N4CCO[C@@H](c5ccccc5)C4)cc3)c2c1F` [Compound 26.26, (S)-5,7-Difluoro-1-(4-(2-phenylmorpholino)phenyl)-1H-benzo[d][1,2,3]triazol-6-ol], the pIC50 was 6.00 to 7.00.
Same read-out and setting: with `CC1(C)CCN(c2ccc(-n3ccc4cc(F)c(O)c(F)c43)cc2)CC1` [Compound 6.2, 1-(4-(4,4-Dimethylpiperidin-1-yl)phenyl)-5,7-difluoro-1H-indol-6-ol] the figure was 6.00 to 7.00; with `COC1(C)CN(c2ccc(-n3ncc4cc(F)c(O)c(F)c43)cc2)C1` [Compound 20.19, 5,7-Difluoro-1-(4-(3-methoxy-3-methylazetidin-1-yl)phenyl)-1H-indazol-6-ol], more than 7.00.
The same measure, in the same setting: under `Oc1c(F)cc2cnn(-c3ccc(-c4ccc(Cl)cc4)cc3)c2c1F` [Compound 13, 1-(4′-Chloro-[1,1′-biphenyl]-4-yl)-5,7-difluoro-1H-indazol-6-ol] stands more than 7.00; under `Oc1c(F)cc2cnn(-c3ccc(N4CCC5(CC4)CNC5)cc3)c2c1F` [Compound 23.28, 1-(4-(2,7-Diazaspiro[3.5]nonan-7-yl)phenyl)-5,7-difluoro-1H-indazol-6-ol], 6.00 to 7.00; under `COC1(C)CCN(c2ccc(-n3ncc4cc(F)c(O)c(F)c43)cc2)CC1` [Compound 20.20, 5,7-Difluoro-1-(4-(4-methoxy-4-methylpiperidin-1-yl)phenyl)-1H-indazol-6-ol], more than 7.00.
Consider `CC1(O)CCN(c2ccc(-n3ncc4cc(F)c(O)c(F)c43)cc2)CC1` [Compound 23.22, 5,7-Difluoro-1-(4-(4-hydroxy-4-methylpiperidin-1-yl)phenyl)-1H-indazol-6-ol], for which the pIC50 was 6.00 to 7.00.
Still for that read-out and setting: with `C[C@@H]1CN(c2ccc(-n3ncc4cc(F)c(O)c(F)c43)cc2)C[C@H](C)O1` [Compound 20.7, 1-(4-(cis-2,6-Dimethylmorpholino)phenyl)-5,7-difluoro-1H-indazol-6-ol] the figure was more than 7.00; with `CS(=O)(=O)c1ccc(-c2ccc(-n3ncc4cc(F)c(O)cc43)cc2)cc1` [Compound 13.26, 5-Fluoro-1-(4′-(methylsulfonyl)-[1,1′-biphenyl]-4-yl)-1H-indazol-6-ol], 6.00 to 7.00.
Same read-out and setting: under `CC1(C#N)CCN(c2ccc(-n3ncc4cc(F)c(O)c(F)c43)cc2)CC1` [Compound 23.21, 1-(4-(5,7-Difluoro-6-hydroxy-1H-indazol-1-yl)phenyl)-4-methylpiperidine-4-carbonitrile] stands more than 7.00; under `CS(=O)(=O)N1CC(c2ccc(-n3ncc4cc(F)c(O)c(F)c43)cc2)C1` [Compound 30, 5,7-Difluoro-1-(4-(1-(methylsulfonyl)azetidin-3-yl)phenyl)-1H-indazol-6-ol], 6.00 to 7.00; under `CC1(C)CCN(c2ncc(-n3ncc4cc(F)c(O)c(F)c43)cn2)CC1` [Compound 6.1, 1-(2-(4,4-Dimethylpiperidin-1-yl)pyrimidin-5-yl)-5,7-difluoro-1H-indazol-6-ol], more than 7.00.
Turning to `CS(=O)(=O)N1CCN(c2ccc(-n3ncc4cnc(O)c(F)c43)cc2)CC1` [Compound 25.5, 7-Fluoro-1-(4-(4-(methylsulfonyl)piperazin-1-yl)phenyl)-1H-pyrazolo[4,3-c]pyridin-6-ol], the inhibition at 10 µM (3 h) was less than 20%.
For `CC(=O)Nc1cccc(-c2ccc(-n3ncc4cc(F)c(O)cc43)cc2)c1` [Compound 13.31, N-(4′-(5-Fluoro-6-hydroxy-1H-indazol-1-yl)-[1,1′-biphenyl]-3-yl)acetamide], the pIC50 was 4.52 to 6.00.
On the same count and under the same terms, under `CS(=O)(=O)N1CC2(CCN(c3ccc(-n4ncc5cc(F)c(O)c(F)c54)cc3)CC2)C1` [Compound 20.21, 5,7-Difluoro-1-(4-(2-(methylsulfonyl)-2,7-diazaspiro[3.5]nonan-7-yl)phenyl)-1H-indazol-6-ol] stands 6.00 to 7.00.
On the same count and under the same terms, under `C[C@H]1CN(c2ccc(-n3ncc4cc(F)c(O)c(F)c43)cc2)C[C@H](C)O1` [Compound 24.9, 1-(4-((2S,6S)-2,6-Dimethylmorpholino)phenyl)-5,7-difluoro-1H-indazol-6-ol] stands more than 7.00.
Still for that read-out and setting: under `CS(=O)(=O)N1CCN(c2ccc(-n3ncc4cc(F)c(O)c(F)c43)cc2)CC1` [Compound 19, 5,7-Difluoro-1-(4-(4-(methylsulfonyl)piperazin-1-yl)phenyl)-1H-indazol-6-ol] stands 6.00 to 7.00.
Turning to `CS(=O)(=O)Nc1ccc(-c2ccc(-n3ncc4cc(F)c(O)cc43)cc2)cc1` [Compound 13.34, N-(4′-(5-Fluoro-6-hydroxy-1H-indazol-1-yl)-[1,1′-biphenyl]-4-yl)methanesulfonamide], the pIC50 was 6.00 to 7.00.
Same read-out and setting: under `CC1CN(c2ccc(-n3ncc4cc(F)c(O)c(F)c43)cc2)CC(C)[S+]1[O-]` (stereo not shown) [Compound 32.3, 4-(4-(5,7-Difluoro-6-hydroxy-1H-indazol-1-yl)phenyl)-2,6-dimethylthiomorpholine 1-oxide] stands 6.00 to 7.00.
Still for that read-out and setting: with `Oc1ccc(-c2ccc(-n3ncc4cc(F)c(O)cc43)nc2)cc1` [Compound 15.3, 5-Fluoro-1-(5-(4-hydroxyphenyl)pyridin-2-yl)-1H-indazol-6-ol] the figure was 6.00 to 7.00.
Regarding `CS(=O)(=O)N1CCN(c2ccc(-n3ncc4ccc(O)cc43)cc2)CC1` [Compound 26.5, 1-(4-(4-(Methylsulfonyl)piperazin-1-yl)phenyl)-1H-indazol-6-ol], the inhibition at 10 µM (3 h) is 35%.
For the molecule `CS(=O)(=O)N1CCN(c2cnc(-n3ncc4cc(F)c(O)c(F)c43)cn2)CC1` [Compound 26.7, 5,7-Difluoro-1-(5-(4-(methylsulfonyl)piperazin-1-yl)pyrazin-2-yl)-1H-indazol-6-ol], the pIC50 was 6.00 to 7.00.
Take `Oc1cc2c(nnn2-c2ccc(N3CC4(CCOCC4)C3)cc2)c(C(F)(F)F)c1F` [Compound 41, 1-(4-(7-Oxa-2-azaspiro[3.5]nonan-2-yl)phenyl)-5-fluoro-4-(trifluoromethyl)-1H-benzo[d][1,2,3]triazol-6-ol]: the negative logarithm of the IC50 (pIC50) is 6.00 to 7.00.
As to `Oc1c(F)cc2cnn(-c3ccc(N4CCC5(CCO5)CC4)cc3)c2c1F` [Compound 26.1, 1-(4-(1-Oxa-7-azaspiro[3.5]nonan-7-yl)phenyl)-5,7-difluoro-1H-indazol-6-ol], the pIC50 was 6.00 to 7.00.
The same measure, in the same setting: with `Oc1cc2c(cnn2-c2ccc(-c3ccc(F)cc3)cc2)cc1F` [Compound 13.5, 5-Fluoro-1-(4′-fluoro-[1,1′-biphenyl]-4-yl)-1H-indazol-6-ol] the figure was 6.00 to 7.00; with `CC1(C)CN(c2ccc(-n3ncc4cc(F)c(O)c(F)c43)cc2)CC(C)(C)O1` [Compound 20.12, 5,7-Difluoro-1-(4-(2,2,6,6-tetramethylmorpholino)phenyl)-1H-indazol-6-ol], more than 7.00; with `CS(=O)(=O)N1CCN(c2ccc(-n3ncc4cc(F)c(O)c(F)c43)nc2)CC1` [Compound 26.4, 5,7-Difluoro-1-(5-(4-(methylsulfonyl)piperazin-1-yl)pyridin-2-yl)-1H-indazol-6-ol], 4.52 to 6.00.
For `Cc1nc2cc(F)c(O)c(F)c2n1-c1ccc(N2CCC(C)(C)CC2)cc1` [Compound 21.8, 1-(4-(4,4-Dimethylpiperidin-1-yl)phenyl)-5,7-difluoro-2-methyl-1H-benzo[d]imidazol-6-ol], the inhibition at 10 µM (3 h) came out at 35%.
`Cc1c(O)c(F)cc2cnn(-c3ccc(-c4cccc(O)c4)cc3)c12` [Compound 4.3, 5-Fluoro-1-(3′-hydroxy-[1,1′-biphenyl]-4-yl)-7-methyl-1H-indazol-6-ol]: the pIC50 is 6.00 to 7.00.
Still for that read-out and setting: under `Nc1cccc(-c2ccc(-n3ncc4cc(F)c(O)cc43)cc2)c1` [Compound 13.27, 1-(3′-Amino-[1,1′-biphenyl]-4-yl)-5-fluoro-1H-indazol-6-ol] stands 4.52 to 6.00.
On the same count and under the same terms, under `CS(=O)(=O)c1ccccc1-c1ccc(-n2ncc3cc(F)c(O)cc32)cc1` [Compound 13.24, 5-Fluoro-1-(2′-(methylsulfonyl)-[1,1′-biphenyl]-4-yl)-1H-indazol-6-ol] stands 4.52 to 6.00; under `CC1(C)CCN(c2ccc(-n3ncc4cc(F)c(O)nc43)cc2)CC1` [Compound 25.2, 1-(4-(4,4-Dimethylpiperidin-1-yl)phenyl)-5-fluoro-1H-pyrazolo[3,4-b]pyridin-6-ol], 4.52 to 6.00; under `Oc1cccc(-c2ccc(-n3ncc4cc(F)c(O)cc43)cc2)c1` [Compound 2, 5-Fluoro-1-(3′-hydroxy-[1,1′-biphenyl]-4-yl)-1H-indazol-6-ol], 6.00 to 7.00.
In the case of `Oc1cc2c(cnn2-c2ccc(-c3ccncc3)cc2)cc1F` [Compound 13.15, 5-Fluoro-1-(4-(pyridin-4-yl)phenyl)-1H-indazol-6-ol], the inhibition at 30 µM (3 h, at 30 uM compound, read-out: HSD17β13 % at 30 uM) was 40%.
With `C[C@@H]1CN(c2ccc(-n3ncc4cc(F)c(O)c(F)c43)cc2)C[C@H](C)S1` [Compound 32.4, 1-(4-(cis-2,6-Dimethylthiomorpholino)phenyl)-5,7-difluoro-1H-indazol-6-ol], the pIC50 is more than 7.00.
As to `OCc1cccc(-c2ccc(-n3ncc4cc(F)c(O)cc43)cc2)c1` [Compound 13.22, 5-Fluoro-1-(3′-(hydroxymethyl)-[1,1′-biphenyl]-4-yl)-1H-indazol-6-ol], the pIC50 was 4.52 to 6.00.
The same measure, in the same setting: with `CC1(C)CCN(c2ccc(-n3nnc4cc(F)c(O)c(F)c43)nn2)CC1` [Compound 26.23, 1-(6-(4,4-Dimethylpiperidin-1-yl)pyridazin-3-yl)-5,7-difluoro-1H-benzo[d][1,2,3]triazol-6-ol] the figure was 6.00 to 7.00.

For the origin of these results see patent publication US20240083853A1, “HSD17B13 INHIBITORS AND USES THEREOF” (FL2022-001, Inc., priority 2020, published 2024).
